Results as given in patent publication US10508113B2, “Inhibitors of tyrosine kinase 2 mediated signaling” (AbbVie Inc., priority 2018, dated 2019).

Tests used:
Jak1 = molecular target: T1, Jak1 (Homo sapiens, UniProt P23458); assay: Jak1 (PSTAT3 TF1) alpha screen assay: inhibition of IL-6 induced phosphorylation of STAT3 in TF1 cells; assay type: cell-based; conditions: calculated from tabulated EC50 data (Jak1 / Tyk2)
T1 construct: endogenous in cells; host or cells: TF1 cells
Protocol: 2. JAK1 (PSTAT3 TF1) ALPHA SCREEN ASSAY
IL-6 is known to transduce its signal through IL-6 receptor via Jak1. Activity against Jak1 was therefore measured by determining inhibition of IL-6 induced phosphorylation of STAT3 in TF1 cells.
Cell Type: TF1 Cells; Culture Medium: RPMI 1640 Medium, 2mM L-glutamine, 10% heat- inactivated fetal bovine serum (FBS), 10 mM hydroxyethyl piperazineethanesulfonic acid (HEPES), and 2 ng/mL recombinant human interleukin-6(IL-6); Assay Medium: Dulbecco's Modified Eagle Medium (DMEM) medium with 2 mM L-glutamine, 10 mM HEPES, 100 U/mL penicillin/streptomycin, 1.5 g/L sodium bicarbonate, 4.5 g/L glucose, 1 mM sodium pyruvate, 10% heat-inactivated FBS; Compound Preparation: Compounds are dissolved in 100% dimethyl sulfoxide (DMSO).
Day One—Starve Cells: 4 Flasks for one 384 plate (spin down @1000 rpm for 10 minutes and add RPMI 1640 Medium, 2 mM L-glutamine, 10% FBS, 10 mM HEPES with no IL-6 -incubate overnight).
(§1) Day Two—Compound Dilutions:
i. Manual 8-point 1:5 dilution curve: 5 mM top concentration dispensed in row A of a
Corning 96-well polypropylene plate, columns 2-12. DMSO dispensed in position A01 for low and high controls. Compounds were serially diluted 1:5 by adding 10 μL stock to […] DMSO down the plate.
ii. Media dilution of compounds: Serially diluted compounds were further diluted 1:12.5 in assay medium by adding 4 μL compound to 46 μL assay medium in a Corning 96-well polypropylene plate.
384 Alpha Screen Plate Set up: Transfer 2.5 μL/well of compound solution from assay media dilution plate. Replicates were vertical, one column of the 96-well dilution plate goes into one column on the 384-well plate twice. Plated 1×10^5 starved cells/well in 5 μL. Washed cells in 10 mL DMEM medium after spinning down. Brought cell pellet up in assay media. Counted live cells. Multiplied by dilution factor and 10,000 (constant) to get the concentration of viable cells. Multiplied by volume of assay media used to bring up cells to get the total number of live cells. Divided by 20,000,000 cells/mL to get the volume needed. Cells were plated at 5 μL/well in gray Alpha Screen 384-well plate. Spinned the plate to bring the contents to the bottom of the wells at 300 rpm for 60 seconds. Top final compound concentration: 25 μM. Sealed with adhesive and tapped gently. Incubated plate at 37° C. for 30 minutes. c. IL-6 Stimulation (pSTAT3)
Once cells were in incubator, immediately prepared working stock of IL-6 (100 ng/mL final concentration). IL-6 stock=10 μg/mL of IL-6 in phosphate buffered saline with 0.1% bovine serum albumin. Diluted 1:25 by adding 60 μL stock IL-6 to 1440 μL assay media. Added 2.5 μL IL-6 to each well. Spinned plate at 300 rpm briefly; tapped the plate gently before covering with an adhesive seal. Incubated plate at 37° C. for 30 minutes.
Added 2.5 μL of 5X Lysis buffer to each well. Incubated at room temperature on orbital shaker for 10 minutes.
e. Protein (A) Acceptor Beads Preparation:
Phosphorylated Signal Transducer and Activator of Transcription 3 (pSTAT3) was quantified using the PerkinElmer SureFire pSTAT3 (Tyrosine 705) Assay. Calculated total volume needed (wells×[…]×25%). Divided total volume by 5 to get volume of activation buffer. Subtracted volume of activation buffer from total volume and divide by 40 to get volume of acceptor beads (add last). Total volume−acceptor bead volume−activation buffer=volume of reaction buffer. Added 15 μL to each well and covered with foil. Shaked on orbital shaker for 2 hours at 500 rpm.
(§2) f. Streptavidin Donor Beads Preparation:
Calculated total volume needed (wells×[…]×25%). Divided total volume by 20 to get volume of donor beads (add last). Subtracted volume of donor beads from total volume to get volume of dilution buffer. Added 6 μL to each well and covered with foil. Shaked on orbital shaker overnight at 500 rpm.
Read plate on a Perkin Elmer Envision. […]

Jak2 = molecular target: T2, Jak2 (Homo sapiens, UniProt O60674); assay: Jak2 (PSTATS UT7) alpha screen assay: inhibition of EPO induced phosphorylation of STAT5 in UT7 cells; assay type: cell-based; conditions: calculated from tabulated EC50 data (Jak2 / Tyk2)
T2 construct: Cell Type: UT7 cells engineered to express the erythropoietin (EPO) receptor; endogenous in cells; host or cells: UT7 cells engineered to express the EPO receptor
T2 sequence (O60674 whole entry): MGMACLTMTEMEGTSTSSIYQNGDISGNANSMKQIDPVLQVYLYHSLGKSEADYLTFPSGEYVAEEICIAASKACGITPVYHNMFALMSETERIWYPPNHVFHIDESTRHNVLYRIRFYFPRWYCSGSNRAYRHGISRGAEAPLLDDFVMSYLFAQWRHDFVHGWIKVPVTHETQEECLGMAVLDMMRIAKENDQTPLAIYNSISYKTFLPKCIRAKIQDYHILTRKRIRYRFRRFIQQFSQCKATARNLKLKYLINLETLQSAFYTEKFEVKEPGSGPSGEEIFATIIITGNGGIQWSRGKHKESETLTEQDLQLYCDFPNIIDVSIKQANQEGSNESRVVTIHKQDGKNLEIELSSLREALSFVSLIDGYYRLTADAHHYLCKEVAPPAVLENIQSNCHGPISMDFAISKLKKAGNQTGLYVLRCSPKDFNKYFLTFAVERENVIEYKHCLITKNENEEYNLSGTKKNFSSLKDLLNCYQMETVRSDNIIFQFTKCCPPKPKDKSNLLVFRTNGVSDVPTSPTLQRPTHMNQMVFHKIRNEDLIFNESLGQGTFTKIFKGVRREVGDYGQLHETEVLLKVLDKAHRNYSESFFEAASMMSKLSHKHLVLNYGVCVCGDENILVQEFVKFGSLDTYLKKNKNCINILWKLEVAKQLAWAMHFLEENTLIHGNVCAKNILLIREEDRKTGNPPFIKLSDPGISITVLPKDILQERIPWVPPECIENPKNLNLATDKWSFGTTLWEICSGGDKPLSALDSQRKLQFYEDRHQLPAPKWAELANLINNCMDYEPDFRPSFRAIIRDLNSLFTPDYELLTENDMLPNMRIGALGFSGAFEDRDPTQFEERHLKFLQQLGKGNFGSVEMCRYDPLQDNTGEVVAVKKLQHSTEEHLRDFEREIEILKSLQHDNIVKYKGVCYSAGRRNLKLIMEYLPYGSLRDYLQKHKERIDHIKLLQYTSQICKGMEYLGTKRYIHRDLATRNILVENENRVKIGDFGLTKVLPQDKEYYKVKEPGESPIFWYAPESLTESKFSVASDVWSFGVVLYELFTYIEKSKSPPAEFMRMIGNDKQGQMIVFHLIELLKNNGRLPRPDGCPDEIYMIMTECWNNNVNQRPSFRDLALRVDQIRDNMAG
Protocol: 3. JAK2 (PSTATS UT7) ALPHA SCREEN ASSAY
Erythropoietin (EPO) is known to transduce its signal through EPO receptor via Jak2. Activity against Jak2 was therefore measured by determining inhibition of EPO induced phosphorylation of STATS in UT7 cells. […] Materials
Cell Type: UT7 cells engineered to express the erythropoietin (EPO) receptor; Culture Medium: Dulbecco's Modified Eagle Medium (DMEM) with 2 mM L-glutamine, 10 mM hydroxyethyl piperazineethanesulfonic acid (HEPES), 10% heat-inactivated fetal bovine serum (FBS) and Stock EPO (5000U in 250 uL, need 5U/mL, so add 250 μL to 1L of media); Assay Medium: 5% FBS ultra-low IgG and 1% Pen/Strep. Compounds were made-up in 100% dimethyl sulfoxide (DMSO).
Day One - Starve Cells: 4 Flasks for one 384 plate (spin down @1000 rpm for 10 minutes and add DMEM with no EPO).
as §1
i. Manual 8-point 1:3 dilution curve: 5 mM top concentration dispensed in row A of a
Corning 96-well polypropylene plate, columns 2-12. DMSO dispensed in position A01 for low and high controls. Compounds were serially diluted 1:3 by adding 10 μL stock to 20 μL DMSO down the plate.
ii. Media dilution of compounds: Serially diluted compounds were diluted 1:50 in assay medium by adding 4 μL compound to 196 μL assay medium in a Corning 96-well polypropylene plate.
384 Alpha Screen Plate Set up: Transferred 2.5 μL/well of compound solution from last dilution plate. Replicates were vertical, so that one column of the 96-well dilution plate goes into one column on the 384-well plate twice. Plated 1×10^5 starved cells/well in 5μL. Washed cells in 10 mL Hank's balanced salt solution (HBSS) after spinning down. Counted live cells. Multiplied by dilution factor and 10,000 (constant) to get the concentration of viable cells. Multiplied by volume of cells to get the total number of live cells. Divided by 20,000,000 cells/mL to get the volume needed. Subtracted the original volume to get the volume to be added to get the final concentration of cells. Mixed in reservoir if needed, ensuring that all cell clumps are broken up (if not broken up, they were removed from the suspension). Cells were plated at 5 μL/well in gray Alpha Screen 384-well plate. Spinned the plate to bring the contents to the bottom of the wells at 400 rpm for 2 minutes. Top final compound concentration: 25 μM. Sealed with adhesive and tapped gently. Incubated cells at 37° C. for 30 minutes.
c. EPO Stimulation (p STATS)
Once cells were in incubator, immediately prepared working stock of EPO (1 nM final assay concentration). EPO stock=2860 nM of sterile filtered liquid in sodium citrate buffer (1 liter of ddH2O containing 5.9 g of sodium citrate, 5.8 g of sodium chloride and 0.06 g of citric acid). Diluted 1:22.72 by adding 4.44 stock EPO to 95.6 pi assay media, then dilute again […] depending on how much volume is needed for the assay plates. Used assay medium to bring to volume. Added 2.5 μL EPO to each well. Spinned plate at 400 rpm briefly; tap the plate gently before covering with an adhesive seal. Cells were incubated at 37° C. for 20 minutes.
Added 2.5 μL of 5X Lysis buffer to each well. Spinned plate at 400 rpm briefly. Incubated at room temperature (on orbital shaker) for 10 minutes.
e. Protein (A) Acceptor Beads Preparation: (Light sensitive)
Phosphorylated Signal Transducer and Activator of Transcription 5 (pSTAT5) was quantified using the PerkinElmer SureFire pSTATS (Tyrosine 694/699) Assay. Calculated total volume needed (wells×15 μL×30%). Divided total volume by 5 to get volume of activation buffer. Subtracted volume of activation buffer from total volume and divide by 40 to get volume of acceptor beads (add last). Total volume - acceptor bead volume - activation buffer to get volume of reaction buffer. Added 15 μL to each well and covered with foil. Shaked on orbital shaker for 2 hours at 500 rpm.
as §2
Calculated total volume needed (wells×6μL×30%). […]

T1 sequence (P23458 whole entry): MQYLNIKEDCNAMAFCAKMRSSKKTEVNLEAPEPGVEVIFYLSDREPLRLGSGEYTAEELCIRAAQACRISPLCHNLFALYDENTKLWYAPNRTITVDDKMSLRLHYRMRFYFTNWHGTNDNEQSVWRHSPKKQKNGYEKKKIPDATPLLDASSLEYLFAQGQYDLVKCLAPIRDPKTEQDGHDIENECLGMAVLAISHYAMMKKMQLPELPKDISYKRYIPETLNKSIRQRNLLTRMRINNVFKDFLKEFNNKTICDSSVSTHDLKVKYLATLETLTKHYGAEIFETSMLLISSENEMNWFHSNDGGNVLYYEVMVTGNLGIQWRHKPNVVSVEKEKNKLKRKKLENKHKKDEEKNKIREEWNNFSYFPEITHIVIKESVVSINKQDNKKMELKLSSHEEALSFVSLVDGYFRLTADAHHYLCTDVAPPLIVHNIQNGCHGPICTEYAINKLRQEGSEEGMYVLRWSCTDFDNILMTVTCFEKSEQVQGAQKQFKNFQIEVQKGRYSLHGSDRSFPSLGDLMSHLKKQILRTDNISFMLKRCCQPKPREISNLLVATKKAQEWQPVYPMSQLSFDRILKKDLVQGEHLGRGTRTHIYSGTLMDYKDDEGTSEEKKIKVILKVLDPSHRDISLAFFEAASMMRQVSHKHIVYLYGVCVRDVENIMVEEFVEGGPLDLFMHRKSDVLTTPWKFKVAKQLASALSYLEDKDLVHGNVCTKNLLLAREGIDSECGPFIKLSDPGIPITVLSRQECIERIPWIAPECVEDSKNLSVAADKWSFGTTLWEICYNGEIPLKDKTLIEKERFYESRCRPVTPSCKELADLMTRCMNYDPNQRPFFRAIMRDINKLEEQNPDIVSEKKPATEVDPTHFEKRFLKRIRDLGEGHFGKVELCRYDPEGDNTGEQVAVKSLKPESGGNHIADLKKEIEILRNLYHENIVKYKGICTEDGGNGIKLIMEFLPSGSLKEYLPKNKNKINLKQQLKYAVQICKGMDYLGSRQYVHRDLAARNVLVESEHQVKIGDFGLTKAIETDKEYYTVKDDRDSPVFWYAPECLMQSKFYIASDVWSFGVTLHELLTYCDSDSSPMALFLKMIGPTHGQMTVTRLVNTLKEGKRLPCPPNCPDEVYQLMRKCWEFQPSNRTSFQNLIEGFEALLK

COCCOc1cc(-c2cn(C)c3cnc(NC(C)=O)cc23)nc([C@]2(CO)CCOC2)c1 [Example 22.8, (S)-N-(3-(6-(3-(hydroxymethyl)tetrahydrofuran-3-yl)-4-(2-methoxyethoxy)pyridin-2-yl)-1-methyl-1H-pyrrolo[2,3-c]pyridin-5-yl)acetamide]
Tyk2 selectivity over Jak1 (Jak1): 103-fold | Tyk2 selectivity over Jak2 (Jak2): >136-fold

CO[C@@]1(c2cc(C)cc(-c3cn(C)c4cnc(NC(C)=O)cc34)n2)CCOC1 [Example 2.2, (R)-N-(3-(6-(3-methoxytetrahydrofuran-3-yl)-4-methylpyridin-2-yl)-1-methyl-1H-pyrrolo[2,3-c]pyridin-5-yl)acetamide]
Tyk2 selectivity over Jak1 (Jak1): 207-fold | Tyk2 selectivity over Jak2 (Jak2): >126-fold

COCc1cc(-c2cn(C)c3cnc(NC(=O)CO)cc23)nc([C@]2(OC)CCOC2)c1 [Example 24, (R)-2-hydroxy-N-(3-(4-(methoxymethyl)-6-(3-methoxytetrahydrofuran-3-yl)pyridin-2-yl)-1-methyl-1H-pyrrolo[2,3-c]pyridin-5-yl)acetamide]
Tyk2 selectivity over Jak1 (Jak1): >1087-fold | Tyk2 selectivity over Jak2 (Jak2): >272-fold

CO[C@@]1(c2cc(OC(F)F)cc(-c3cn(C)c4cnc(NC(C)=O)cc34)n2)CCOC1 [Example 22.2, (R)-N-(3-(4-(difluoromethoxy)-6-(3-methoxytetrahydrofuran-3-yl)pyridin-2-yl)-1-methyl-1H-pyrrolo[2,3-c]pyridin-5-yl)acetamide]
Tyk2 selectivity over Jak1 (Jak1): 393-fold | Tyk2 selectivity over Jak2 (Jak2): >281-fold

CO[C@@]1(c2cc(OC[C@@H](C)O)cc(-c3cn(C)c4cnc(NC(C)=O)cc34)n2)CCOC1 [Example 14.6, N-(3-(4-((R)-2-hydroxypropoxy)-6-((R)-3-methoxytetrahydrofuran-3-yl)pyridin-2-yl)-1-methyl-1H-pyrrolo[2,3-c]pyridin-5-yl)acetamide]
Tyk2 selectivity over Jak1 (Jak1): 563-fold | Tyk2 selectivity over Jak2 (Jak2): >287-fold

CO[C@@]1(c2cc(C(F)F)cc(-c3cn(C4COC4)c4cnc(NC(C)=O)cc34)n2)CCOC1 [Example 4.3, (R)-N-(3-(4-(difluoromethyl)-6-(3-methoxytetrahydrofuran-3-yl)pyridin-2-yl)-1-(oxetan-3-yl)-1H-pyrrolo[2,3-c]pyridin-5-yl)acetamide]
Tyk2 selectivity over Jak1 (Jak1): 310-fold | Tyk2 selectivity over Jak2 (Jak2): >144-fold

COCc1cc(-c2cn(C3COC3)c3cnc(NC(C)=O)cc23)nc([C@]2(OC)CCOC2)c1 [Example 4, (R)-N-(3-(4-(methoxymethyl)-6-(3-methoxytetrahydrofuran-3-yl)pyridin-2-yl)-1-(oxetan-3-yl)-1H-pyrrolo[2,3-c]pyridin-5-yl)acetamide]
Tyk2 selectivity over Jak1 (Jak1): >730-fold | Tyk2 selectivity over Jak2 (Jak2): >182-fold

CO[C@@]1(c2cc(OCC3COC3)cc(-c3cn(C)c4cnc(NC(C)=O)cc34)n2)CCOC1 [Example 6, (R)-N-(3-(6-(3-Methoxytetrahydrofuran-3-yl)-4-(oxetan-3-ylmethoxy)pyridin-2-yl)-1-methyl-1H-pyrrolo[2,3-c]pyridin-5-yl)acetamide]
Tyk2 selectivity over Jak1 (Jak1): 420-fold | Tyk2 selectivity over Jak2 (Jak2): >500-fold

COC1(c2cccc(-c3cn(C)c4cnc(NC(N)=O)cc34)n2)COC1 [Example 1b.4, 1-(3-(6-(3-methoxyoxetan-3-yl)pyridin-2-yl)-1-methyl-1H-pyrrolo[2,3-c]pyridin-5-yl)urea]
Tyk2 selectivity over Jak1 (Jak1): 54-fold | Tyk2 selectivity over Jak2 (Jak2): >176-fold

CO[C@@]1(c2cncc(-c3cn(C)c4cnc(NC(N)=O)cc34)n2)CCOC1 [Example 12, (R)-1-(3-(6-(3-Methoxytetrahydrofuran-3-yl)pyrazin-2-yl)-1-methyl-1H-pyrrolo[2,3-c]pyridin-5-yl)urea]
Tyk2 selectivity over Jak1 (Jak1): 66-fold | Tyk2 selectivity over Jak2 (Jak2): >102-fold
